Key:
Test in all cases: relative viability (nuclei count vs DMSO), 5 days (fraction); higher = more cells survive
Ibrutinib + Foretinib = compound: C=CC(=O)N1CCC[C@@H](n2nc(-c3ccc(Oc4ccccc4)cc3)c3c(N)ncnc32)C1 [Ibrutinib] + COc1cc2c(Oc3ccc(NC(=O)C4(C(=O)Nc5ccc(F)cc5)CC4)cc3F)ccnc2cc1OCCCN1CCOCC1 [Foretinib] (partner 0.25 µM)
In short: (§1)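 A single step with final 0.05% Triton X-100, 1% formaldehyde and 1 ug/ml Hoechst fixed the cells and stained nuclei 5 days after treatment. Lung cancer cell lines in 1536-well plates had been treated by pin tool the day after seeding with one drug alone or a fixed anchor-drug dose plus five library-drug doses (not always all listed) in √10 steps, and nuclei were counted on 4× images. Relative viability is the ratio of nuclei in treated wells to nuclei in vehicle wells, taken as the median of duplicate plates.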

PAC-1 + Vorinostat = compound: C=CCc1cccc(/C=N/NC(=O)CN2CCN(Cc3ccccc3)CC2)c1O [PAC-1] + O=C(CCCCCCC(=O)Nc1ccccc1)NO [Vorinostat] (partner 1 µM)
In short: as §1

BMX-IN-1 + Tozasertib = compound: C=CC(=O)Nc1cc(-n2c(=O)ccc3cnc4ccc(-c5ccc(NS(C)(=O)=O)cc5)cc4c32)ccc1C [BMX-IN-1] + Cc1cc(Nc2cc(N3CCN(C)CC3)nc(Sc3ccc(NC(=O)C4CC4)cc3)n2)n[nH]1 [Tozasertib] (partner 0.1 µM)
In short: as §1

BMX-IN-1 + AZD7762 = compound: C=CC(=O)Nc1cc(-n2c(=O)ccc3cnc4ccc(-c5ccc(NS(C)(=O)=O)cc5)cc4c32)ccc1C [BMX-IN-1] + NC(=O)Nc1cc(-c2cccc(F)c2)sc1C(=O)N[C@H]1CCCNC1 [AZD7762] (partner 0.2 µM)
In short: as §1

Row | Cell Line | relative viability (Ibrutinib + Foretinib; first compound 0.005 µM) | relative viability (Ibrutinib + Foretinib; first compound 0.01581 µM) | relative viability (Ibrutinib + Foretinib; first compound 0.05 µM) | relative viability (Ibrutinib + Foretinib; first compound 0.1581 µM) | relative viability (Ibrutinib + Foretinib; first compound 0.5 µM) | relative viability (PAC-1 + Vorinostat; first compound 0.02 µM) | relative viability (PAC-1 + Vorinostat; first compound 0.06325 µM) | relative viability (PAC-1 + Vorinostat; first compound 0.2 µM) | relative viability (PAC-1 + Vorinostat; first compound 2 µM) | relative viability (BMX-IN-1 + Tozasertib; first compound 0.02 µM) | relative viability (BMX-IN-1 + Tozasertib; first compound 0.2 µM) | relative viability (BMX-IN-1 + Tozasertib; first compound 0.6325 µM) | relative viability (BMX-IN-1 + Tozasertib; first compound 2 µM) | relative viability (BMX-IN-1 + AZD7762; first compound 0.02 µM) | relative viability (BMX-IN-1 + AZD7762; first compound 0.2 µM) | relative viability (BMX-IN-1 + AZD7762; first compound 0.6325 µM) | relative viability (BMX-IN-1 + AZD7762; first compound 2 µM)
1 | IA-LM | 1.11 | 1.04 | 1.1 | 1.24 | 1.1 | 1.15 | 0.915 | 0.879 | 0.961 |  |  |  |  |  |  |  | 
2 | LC-2-ad | 0.958 | 0.747 | 0.856 | 0.886 | 0.836 | 0.743 | 0.632 | 0.691 | 0.698 | 0.408 | 0.501 | 0.394 | 0.214 | 0.982 | 1.09 | 0.924 | 0.867
3 | LCLC-97TM1 | 0.945 | 0.881 | 1 | 1 | 0.843 | 0.776 | 0.805 |  | 0.761 | 0.203 | 0.274 | 0.289 | 0.203 | 0.235 | 0.239 | 0.327 | 0.202
4 | LCLC-103H | 0.809 | 0.623 | 0.792 | 0.835 | 0.728 | 0.854 | 0.864 | 0.759 | 0.826 | 0.605 | 0.494 | 0.559 | 0.485 | 0.824 | 0.887 | 0.773 | 0.82
5 | LK-2 |  |  | 1.32 | 1.27 | 0.996 | 0.317 | 0.306 | 0.301 | 0.58 | 0.223 | 0.173 | 0.161 | 0.184 | 0.397 | 0.297 | 0.323 | 0.41
6 | LOU-NH91 | 0.861 | 0.769 | 0.679 | 0.913 | 0.568 | 0.876 | 0.937 | 0.897 | 0.887 | 0.829 |  | 0.715 | 0.656 |  | 0.806 | 0.865 | 0.753
7 | LU99A | 0.734 | 0.703 | 0.856 | 0.945 | 0.497 | 0.502 | 0.448 | 0.429 | 0.502 | 0.275 | 0.294 | 0.275 | 0.293 | 0.393 | 0.416 | 0.415 | 0.288
8 | LXF-289 | 0.946 | 0.958 | 0.995 | 0.917 | 0.956 | 0.793 | 0.765 | 0.731 | 0.732 | 0.212 | 0.197 | 0.187 | 0.146 | 1.25 | 1.18 | 1.22 | 1.27
9 | NCI-H23 | 0.988 | 0.884 | 0.939 | 0.914 | 0.641 | 0.692 | 0.567 | 0.651 | 0.751 | 0.331 | 0.367 | 0.586 | 0.34 | 0.211 | 0.272 | 0.18 | 0.25
10 | NCI-H520 | 0.672 |  | 0.734 | 0.945 | 0.531 | 0.57 | 0.722 | 0.687 | 0.678 | 0.494 | 0.451 | 0.43 | 0.429 |  |  |  | 
11 | NCI-H522 |  |  |  |  |  | 0.902 | 0.846 | 0.941 | 0.862 | 0.573 | 0.666 | 0.605 | 0.532 | 1.07 | 0.914 | 0.769 | 0.846
12 | NCI-H661 | 1.06 | 0.839 | 0.842 | 0.984 | 0.616 | 0.786 | 0.784 | 0.743 | 0.676 | 0.378 | 0.358 | 0.352 | 0.348 |  |  |  | 
13 | NCI-H1299 | 0.557 | 1.07 | 1.14 | 1.09 | 1.11 |  |  |  |  |  |  |  |  |  |  |  | 
14 | NCI-H1563 | 0.985 | 0.92 | 0.935 | 0.998 | 0.88 |  |  |  |  |  |  |  |  |  |  |  | 
15 | NCI-H1623 | 0.8 | 0.701 | 0.568 | 0.692 | 0.289 |  |  |  |  | 0.494 | 0.465 | 0.447 | 0.394 |  |  |  | 
16 | NCI-H1648 |  |  |  |  |  | 0.49 | 0.42 | 0.431 | 0.463 | 0.447 | 0.47 | 0.426 | 0.459 | 0.498 | 0.758 | 0.747 | 0.67
17 | NCI-H1650 | 1.01 | 0.793 | 0.934 |  | 0.732 | 0.507 | 0.672 | 0.52 | 0.418 | 0.374 | 0.503 | 0.364 | 0.41 |  |  |  | 
18 | NCI-H1703 |  | 0.322 | 0.317 | 0.307 | 0.338 |  |  |  |  |  |  |  |  | 0.132 |  |  | 0.143
19 | NCI-H1792 |  |  |  |  |  |  |  |  |  |  |  |  |  | 0.896 | 0.79 | 0.866 | 0.885
20 | NCI-H2009 | 1.31 | 1.21 | 1.14 | 1.19 | 1.26 | 0.669 | 0.685 | 0.732 | 0.741 | 0.826 | 0.853 | 0.781 | 0.712 |  |  |  | 
21 | NCI-H2023 | 0.747 | 0.721 | 0.562 | 0.975 | 0.459 | 0.741 | 0.605 | 0.495 | 0.474 | 0.363 | 0.43 | 0.434 | 0.333 |  |  |  | 
22 | NCI-H2228 | 0.845 |  | 0.915 | 0.892 | 0.609 | 0.699 | 0.932 | 0.546 | 0.504 | 0.243 | 0.245 | 0.243 | 0.224 |  |  |  | 
23 | SK-LU-1 | 0.857 | 0.804 | 0.814 | 0.926 | 0.719 | 0.742 | 0.846 | 0.757 | 0.855 | 0.321 | 0.344 | 0.281 | 0.254 |  |  |  | 
24 | SW 1573 | 0.816 | 0.733 | 1.01 | 0.844 | 0.879 | 0.693 | 0.649 | 0.571 | 0.861 | 0.115 | 0.175 | 0.185 | 0.177 |  |  |  | 
25 | UMC-11 | 1.04 | 1.03 | 1.04 | 0.993 | 1.02 | 0.36 | 0.41 | 0.349 | 0.513 | 0.194 | 0.197 | 0.244 | 0.196 |  |  |  | 

From the supplement of paper PMC10307832
